Test results: PMC5872323, “The Plant Defensin NaD1 Enters the Cytoplasm of Candida albicans via Endocytosis” (Journal of Fungi, 2018)
Where no end group is shown, it is not given here.

Columns and labels:
[1] = tested on: C. albicans DAY185; assay: Flow cytometry cell death assay (PI positive cells) at 30 °C or 4 °C; assay type: cell-based, Candida albicans; conditions: 0, 5, 10 or 20 µM peptide, 5 µM PI, 30 min, half-strength PDB, three biological replicates
Experimental: (§1) C. albicans DAY185 overnight cultures were diluted in half-strength potato dextrose broth (PDB) to an OD600 of 0.2 and grown for 3 h (30 °C, 250 rpm) before they were diluted again to an OD600 of 0.1 with half-strength PDB and used in cell death and NaD1 uptake assays. Cell death assays were conducted by treating 300 µL of C. albicans cells with 0, 5, 10 or 20 µM of native NaD1 or LL-37 and 5 µM PI. NaD1 uptake at 4 °C was measured by treating 300 µL of cells with 0, 5 or 10 µM BODIPY-labelled NaD1. All treatments were conducted for 30 min at either 30 °C or 4 °C without shaking and in the dark. […] For BODIPY-labelled NaD1, cells were excited at 488 nm and emission was detected using a 530/30 filter. For PI, cells were excited at 488 nm and emission was detected using a 670LP filter. Data were analysed using Weasel v3.0 (Walter and Eliza Hall Institute, Parkville, Australia).
(§2) Figure 2 NaD1 induced cell death and uptake is reduced at 4 °C. […] PI (5 µM) was added for quantitation of cell death. Cells with PI fluorescence were counted using a flow cytometer to separate living and dead cells at both 30 °C (grey shading) and 4 °C (black line). Data is a representative example from three independent experiments; (Aii) The percentage of PI positive cells (percent cell death) relative to total cell counts was also calculated for three biological replicates and is shown in a bar graph. […]

[2] = tested on: C. albicans DAY185; assay: Fungal growth inhibition assay; assay type: cell-based, Candida albicans; conditions: half-strength PDB, 30 °C, 24 h, absorbance 595 nm, n = 3
Experimental: (§3) Fungal growth inhibition assays were performed essentially as described in [30]. Overnight cultures of C. albicans cells were diluted to 5000 cells/mL with half-strength PDB. For growth inhibition assays in the presence of latrunculin A, 80 µL of diluted C. albicans DAY185 cells were added to 10 µL of latrunculin A and 10 µL of NaD1 in a 96 well microtiter plate (Greiner, Kremsmünster, Austria) to final concentrations of 2.5, 3, 4 and 4.5 µM NaD1 and 0 or 20 μM latrunculin A (AdipoGen). For brefeldin A and nocodazole assays, 80 µL of diluted C. albicans DAY185 cells was added to 10 µL of inhibitor and 10 µL of NaD1 in a microtiter plate. Brefeldin A (Sigma) and nocodazole where serially diluted (two-fold) down the plate with top final concentrations of 40 µM and 20 µM respectively. NaD1 was added to all wells at a final concentration of 2.5 µM. No-inhibitor controls were also included. For testing the antifungal activity of NaD1 against the C. albicans ESCRT mutants, 80 µL of diluted cells (DAY286 wild type and mutants) were added to 20 µL of NaD1 serially diluted from a top final concentration of 10 µM. All plates were incubated at 30 °C overnight without shaking. Growth of cells was monitored by measuring absorbance at 595 nm in a SpectraMAX M5e plate reader (Molecular Devices, San Jose, CA, USA). Measurements were taken at t = 0 and t = 24 h.

[3] = tested on: C. albicans DAY286 (WT); assay: Fungal growth inhibition assay, ESCRT wild type; assay type: cell-based, Candida albicans; conditions: half-strength PDB, 30 °C, 24 h, absorbance 595 nm, IC50 ± standard deviation, n = 4
Text: (§4) All C. albicans strains were obtained from the fungal genetic stock centre and are described in [26, 27, 28]. Strains were derived from the BWP17 background strain (ura3::imm434/ura3::imm434 iro1/iro1::imm434 his1::hisG/his1::hisG arg4/arg4). The DAY185 wild-type C. albicans strain (ARG4+, URA3+, HIS1+) was used in most assays. For testing of C. albicans ESCRT mutants, DAY286 (ARG4+, URA3+, his1-) was used as the wild-type strain. C. albicans ESCRT (ARG4+, URA3+, his1-) mutants were produced by transposon insertion. Strains were grown in yeast extract-peptone dextrose (YPD) at 30 °C with shaking (250 rpm). For C. albicans mutant strains, YPD was supplemented with 80 µg/mL uridine.
Fungal growth inhibition assays were performed essentially as described in [30]. Overnight cultures of C. albicans cells were diluted to 5000 cells/mL with half-strength PDB. For growth inhibition assays in the presence of latrunculin A, 80 µL of diluted C. albicans DAY185 cells were added to 10 µL of latrunculin A and 10 µL of NaD1 in a 96 well microtiter plate (Greiner, Kremsmünster, Austria) to final concentrations of 2.5, 3, 4 and 4.5 µM NaD1 and 0 or 20 μM latrunculin A (AdipoGen). […] Growth of cells was monitored by measuring absorbance at 595 nm in a SpectraMAX M5e plate reader (Molecular Devices, San Jose, CA, USA). […]

[4] = tested on: C. albicans bro1Δ; assay: Fungal growth inhibition assay, ESCRT mutant; assay type: cell-based, Candida albicans; conditions: half-strength PDB, 30 °C, 24 h, absorbance 595 nm, IC50 ± standard deviation, n = 4
Text: as §4, §3

[5] = tested on: C. albicans snf7Δ; assay: Fungal growth inhibition assay, ESCRT mutant; assay type: cell-based, Candida albicans; conditions: half-strength PDB, 30 °C, 24 h, absorbance 595 nm, IC50 ± standard deviation, n = 4
Text: as §4, §3

[6] = tested on: C. albicans vps23Δ; assay: Fungal growth inhibition assay, ESCRT mutant; assay type: cell-based, Candida albicans; conditions: half-strength PDB, 30 °C, 24 h, absorbance 595 nm, IC50 ± standard deviation, n = 4
Text: as §4, §3

[7] = tested on: C. albicans vps24Δ; assay: Fungal growth inhibition assay, ESCRT mutant; assay type: cell-based, Candida albicans; conditions: half-strength PDB, 30 °C, 24 h, absorbance 595 nm, IC50 ± standard deviation, n = 4
Text: as §4, §3

[8] = tested on: C. albicans vps28Δ; assay: Fungal growth inhibition assay, ESCRT mutant; assay type: cell-based, Candida albicans; conditions: half-strength PDB, 30 °C, 24 h, absorbance 595 nm, IC50 ± standard deviation, n = 4
Text: as §4, §3

[9] = tested on: C. albicans vps2Δ; assay: Fungal growth inhibition assay, ESCRT mutant; assay type: cell-based, Candida albicans; conditions: half-strength PDB, 30 °C, 24 h, absorbance 595 nm, IC50 ± standard deviation, n = 4
Text: as §4, §3

[10] = tested on: C. albicans vps36Δ; assay: Fungal growth inhibition assay, ESCRT mutant; assay type: cell-based, Candida albicans; conditions: half-strength PDB, 30 °C, 24 h, absorbance 595 nm, IC50 ± standard deviation, n = 4
Text: as §4, §3

[11] = tested on: C. albicans DAY185; conditions: growth inhibition of C. albicans DAY185, previously reported; cited from earlier work
[12] = tested on: C. albicans DAY185; assay: Confocal microscopy of BODIPY-NaD1 uptake after CCCP or latrunculin A pre-treatment (cell counts); assay type: cell-based, Candida albicans; conditions: 0 µM CCCP (no-inhibitor control), 10 µM BODIPY-NaD1 for 10 min, n = 4
Experimental: C. albicans DAY185 overnight cultures were diluted in half-strength potato dextrose broth (PDB; Becton Dickinson, Scoresby, Australia) to an OD600 of 0.2 and grown for a further three hours (30 °C, 250 rpm). Cells were then diluted to an OD600 of 0.3 with half-strength PDB. For time course experiments, 300 µL aliquots (in 1.5 mL microcentrifuge tubes) were pre-treated with 5 µM propidium iodide (PI; Sigma, St Louis, MO, USA) for 10 min prior to addition of BODIPY- labelled NaD1. For CCCP and latrunculin A experiments, yeast cells were pre-treated with 50 µM CCCP (Sigma) or 100 µM latrunculin A (AdipoGen, Liestal, Switzerland) for 2 h (30 °C, 250 rpm) before addition of 5 µM PI. BODIPY-NaD1 (10 µM) was then added and cells were monitored using a Zeiss LSM510/ConfoCor confocal with images taken every 5 sec. BODIPY was excited at 488 nm (Argon laser) and emission was detected at 505 to 530 nm. PI was excited at 561 nm (DPSS laser) and fluorescence was monitored at 575 to 615 nm. Images were captured using Zen2009 (Zeiss, Oberkochen, Germany) software and analysed using FIJI (Bethesda, Rockville, MD, USA). Brightness and contrast for Figure 1, Figure 3 and Figure 4 were adjusted using the auto-brightness/contrast function of FIJI.
Figure 3 NaD1 uptake is reduced after treatment with CCCP. […]

[13] = tested on: C. albicans DAY185; assay: Flow cytometry BODIPY-NaD1 uptake at 30 °C or 4 °C; assay type: cell-based, Candida albicans; conditions: 0, 5 or 10 µM BODIPY-NaD1, 30 min, half-strength PDB, three biological replicates
Experimental: as §1, §2

Row | Substance | cell death (PI positive cells) at 4 °C compared to 30 °C [1] | growth of cells with NaD1 plus brefeldin A versus NaD1 only ([2]; 2.5 µM NaD1 with 20 µM brefeldin A) | growth inhibition by NaD1 in the presence of latrunculin A ([2]; 2.5 µM NaD1 with 20 µM latrunculin A, 5000 cells/mL) | growth of cells with NaD1 plus nocodazole versus NaD1 only ([2]; 2.5 µM NaD1 with 20 µM nocodazole) | protection of cells from NaD1 by latrunculin A ([2]; 4 µM NaD1 with 20 µM latrunculin A, 5000 cells/mL) | IC50 [3] [nM] | IC50 [4] [nM] | IC50 [5] [nM] | IC50 [6] [nM] | IC50 [7] [nM] | IC50 [8] [nM] | IC50 [9] [nM] | IC50 [10] [nM] | IC50 [11] [nM] | cells with BODIPY-labelled NaD1 accumulated on the cell surface, relative to total cell counts [12] | cells containing BODIPY-labelled NaD1 in the cytoplasm at 4 °C compared to 30 °C [13]
1 | NaD1: plant defensin from ornamental tobacco, purified from the flowers of Nicotiana alata (RECKTESNTFPGICITKPPCRKACISEKFTDGHCSKILRRCLCTKPC; ends and bridges not checked; cysteine pairing not given here; UniProt Q8GTM0 26-72, looked up) | less cell death | No significant difference | reduced | No significant difference | did not protect | 1800 ± 490 | 2100 ± 350 | 1900 ± 450 | 1800 ± 430 | 2100 ± 330 | 1600 ± 330 | 1800 ± 400 | 1700 ± 280 | 2300 ± 600 |  | 
2 | BODIPY-NaD1: NaD1 fluorescently labelled with BODIPY-FL-EDA (RECKTESNTFPGICITKPPCRKACISEKFTDGHCSKILRRCLCTKPC; BODIPY-FL-EDA label; UniProt Q8GTM0 26-72, looked up) |  |  |  |  |  |  |  |  |  |  |  |  |  |  | about 21% | Fewer cells
